Results taken from patent publication US20240365736A1, “COMPOSITIONS AND METHODS FOR TARGETED DEGRADATION OF PROTEINS IN A PLANT CELL” (Oerth Bio LLC, priority 2021, published 2024).

Test system: Matricaria recutita, Diplotaxis tenuifolia, Agrostis spp., Poa annua, or Arabidopsis thaliana
Assay: Plant phenotyping assay (herbicidal phenotypes, 96-well plates); further: key: '+++' is highly active; '++' is moderately active; '+' is weakly active; '−' is inactive
Assay type: in vivo
Details: visual score of herbicidal phenotypes after seven days; 238, 475, 950, and 1900 g ai/ha (50-400 uM)
Experimental: Seeds of Matricaria recutita, Diplotaxis tenuifolia, Agrostis spp., Poa annua, or Arabidopsis thaliana were sown into 96-well plates containing 200 μl of growth media [0.5× Murashige and Skoog (MS) basal media (Sigma-Aldrich), 2.5 mM 2-(N-morpholino) ethanesulfonic acid (MES—Sigma-Aldrich), 0.7 g/L Phytagar (Invitrogen); pH 5.7]. Three to five seeds were distributed per well. Plates were placed under fifteen hours of light at 23° C., 65% humidity in a controlled environment growth chamber. After approximately three days, test compounds and controls were mixed with acetone and emulsified with an equal volume of 3% methyl ester of rapeseed oil (Mero), and applied to plants at concentrations of 238, 475, 950, and 1900 g ai/ha (50-400 uM).

Structure (SMILES) | Plant Activity
O=C1CCC(N2C(=O)c3cccc(OCCOCCOCCOc4cccc(C(=O)C5C(=O)CCCC5=O)c4Cl)c3C2=O)C(=O)N1 (centres unmarked) [Compound 1, 4-[2-[2-[2-[2-chloro-3-(2,6-dioxocyclohexanecarbonyl)phenoxy]ethoxy]ethoxy]-ethoxy]-2-(2,6-dioxo-3-piperidyl)isoindoline-1,3-dione] | ++
O=C(COc1cccc2c1C(=O)N(C1CCC(=O)NC1=O)C2=O)NCCOCCOc1cccc(C(=O)C2C(=O)CCCC2=O)c1Cl (centres unmarked) [Compound 1-A, N-(2-(2-(2-Chloro-3-(2,6-dioxocyclohexane-1-carbonyl)phenoxy)ethoxy)ethyl)-2-((2-(2,6-dioxopiperidin-3-yl)-1,3-dioxoisoindolin-4-yl)oxy)acetamide] | +
O=C1CCC(N2C(=O)c3ccc(N4CCN(CCOCCOCCOc5cccc(C(=O)C6C(=O)CCCC6=O)c5Cl)CC4)cc3C2=O)C(=O)N1 (centres unmarked) [Compound 2, 5-[4-[2-[2-[2-[2-chloro-3-(2,6-dioxocyclohexane-carbonyl)phenoxy]ethoxy]-ethoxy]ethyl]piperazin-1-yl]-2-(2,6-dioxo-3-piperidyl)isoindoline-1,3-dione] | +
O=C1CCC(N2C(=O)c3ccc(N4CCN(CCOCCOCCOCCN5CCC(Oc6cccc(C(=O)C7C(=O)CCCC7=O)c6Cl)CC5)CC4)cc3C2=O)C(=O)N1 (centres unmarked) [Compound 2-A, 5-[4-[2-[2-[2-[2-[4-[2-Chloro-3-(2,6-dioxocyclohexanecarbonyl)phenoxy]-1-piperidyl]ethoxy]ethoxy]ethoxy]ethyl]piperazin-1-yl]-2-(2,6-dioxo-3-piperidyl)isoindoline-1,3-dione] | +
O=C1CCC(N2C(=O)c3ccc(N4CCN(CCCC5CCN(CCOCCOc6cccc(C(=O)C7C(=O)CCCC7=O)c6Cl)CC5)CC4)cc3C2=O)C(=O)N1 (centres unmarked) [Compound 2-B, 5-(4-(3-(1-(2-(2-(2-Chloro-3-(2,6-dioxocyclohexane-1-carbonyl)phenoxy)ethoxy)ethyl)piperidin-4-yl)propyl)piperazin-1-yl)-2-(2,6-dioxopiperidin-3-yl)isoindoline-1,3-dione] | +
CS(=O)(=O)c1ccc(C(=O)C2C(=O)CCCC2=O)c(Cl)c1OCCOCCOCCOc1ccc2c(c1)C(=O)N(C1CCC(=O)NC1=O)C2=O (centres unmarked) [Compound 3, 5-[2-[2-[2-[2-chloro-3-(2,6-dioxocyclohexanecarbonyl)-6-methylsulfonyl-phenoxy]ethoxy]ethoxy]ethoxy]-2-(2,6-dioxo-3-piperidyl)isoindoline-1,3-dione] | ++
COc1cnc(OC)n2nc(NS(=O)(=O)c3c(OCCOc4ccc5c(c4)C(=O)N(C4CCC(=O)NC4=O)C5=O)cccc3C(F)(F)F)nc12 (centres unmarked) [Compound 4, N-(5,8-dimethoxy-[1,2,4]triazolo[1,5-c]pyrimidin-2-yl)-2-[2-[2-(2,6-dioxo-3-piperidyl)-1,3-dioxo-isoindolin-5-yl]oxyethoxy]-6-(trifluoromethyl)benzenesulfonamide] | +
COc1cnc(OC)n2nc(NS(=O)(=O)c3c(OCCOCCOCCOCCOCCOc4ccc5c(c4)C(=O)N(C4CCC(=O)NC4=O)C5=O)cccc3C(F)(F)F)nc12 (centres unmarked) [Compound 4-A, N-(5,8-Dimethoxy-[1,2,4]triazolo[1,5-c]pyrimidin-2-yl)-2-((14-((2-(2,6-dioxopiperidin-3-yl)-1,3-dioxoisoindolin-5-yl)oxy)-3,6,9,12-tetraoxatetradecyl)oxy)-6-(trifluoromethyl)benzenesulfonamide] | +++
COc1cnc(OC)n2nc(NS(=O)(=O)c3c(OCCOCCOCCOc4ccc5c(c4)C(=O)N(C4CCC(=O)NC4=O)C5=O)cccc3C(F)(F)F)nc12 (centres unmarked) [Compound 4-C, N-(5,8-Dimethoxy-[1,2,4]triazolo[1,5-c]pyrimidin-2-yl)-2-(2-(2-(2-((2-(2,6-dioxopiperidin-3-yl)-1,3-dioxoisoindolin-5-yl)oxy)ethoxy)ethoxy)ethoxy)-6-(trifluoromethyl)benzenesulfonamide] | +++
COc1cnc(OC)n2nc(NS(=O)(=O)c3c(OCCOCCOCCOCCOc4ccc5c(c4)C(=O)N(C4CCC(=O)NC4=O)C5=O)cccc3C(F)(F)F)nc12 (centres unmarked) [Compound 4-D, N-(5,8-Dimethoxy-[1,2,4]triazolo[1,5-c]pyrimidin-2-yl)-2-(2-(2-(2-(2-((2-(2,6-dioxopiperidin-3-yl)-1,3-dioxoisoindolin-5-yl)oxy)ethoxy)ethoxy)ethoxy)ethoxy)-6-(trifluoromethyl)benzenesulfonamide] | +++
COc1cnc(OC)n2nc(NS(=O)(=O)c3c(OCCOCCOCCOCCOCCOCCOc4cccc5c4C(=O)N(C4CCC(=O)NC4=O)C5=O)cccc3C(F)(F)F)nc12 (centres unmarked) [Compound 4-E, N-(5,8-Dimethoxy-[1,2,4]triazolo[1,5-c]pyrimidin-2-yl)-2-((17-((2-(2,6-dioxopiperidin-3-yl)-1,3-dioxoisoindolin-4-yl)oxy)-3,6,9,12,15-pentaoxaheptadecyl)oxy)-6-(trifluoromethyl)benzenesulfonamide] | ++
COc1cnc(OC)n2nc(NS(=O)(=O)c3c(OCCOCCOCCOCCOCCNc4cccc5c4C(=O)N(C4CCC(=O)NC4=O)C5=O)cccc3C(F)(F)F)nc12 (centres unmarked) [Compound 4-F, N-(5,8-Dimethoxy-[1,2,4]triazolo[1,5-c]pyrimidin-2-yl)-2-((14-((2-(2,6-dioxopiperidin-3-yl)-1,3-dioxoisoindolin-4-yl)amino)-3,6,9,12-tetraoxatetradecyl)oxy)-6-(trifluoromethyl)benzenesulfonamide] | +++
COc1cnc(OC)n2nc(NS(=O)(=O)c3c(OCCOCCOCCOCCNC(=O)COc4cccc5c4C(=O)N(C4CCC(=O)NC4=O)C5=O)cccc3C(F)(F)F)nc12 (centres unmarked) [Compound 4-G, N-(2-(2-(2-(2-(2-(N-(5,8-Dimethoxy-[1,2,4]triazolo[1,5-c]pyrimidin-2-yl)sulfamoyl)-3-(trifluoromethyl)phenoxy)ethoxy)ethoxy)ethoxy)ethyl)-2-((2-(2,6-dioxopiperidin-3-yl)-1,3-dioxoisoindolin-4-yl)oxy)acetamide] | ++
COc1cnc(OC)n2nc(NS(=O)(=O)c3c(OCCOCCOCCOCCOCCNC(=O)COc4cccc5c4C(=O)N(C4CCC(=O)NC4=O)C5=O)cccc3C(F)(F)F)nc12 (centres unmarked) [Compound 4-H, N-(14-(2-(N-(5,8-Dimethoxy-[1,2,4]triazolo[1,5-c]pyrimidin-2-yl)sulfamoyl)-3-(trifluoromethyl)phenoxy)-3,6,9,12-tetraoxatetradecyl)-2-((2-(2,6-dioxopiperidin-3-yl)-1,3-dioxoisoindolin-4-yl)oxy)acetamide] | +++
COc1cnc(OC)n2nc(NS(=O)(=O)c3c(OC4CCN(CCOCCOCCN5CCN(c6ccc7c(c6)C(=O)N(C6CCC(=O)NC6=O)C7=O)CC5)CC4)cccc3C(F)(F)F)nc12 (centres unmarked) [Compound 4-I, N-(5,8-Dimethoxy-[1,2,4]triazolo[1,5-c]pyrimidin-2-yl)-2-((1-(2-(2-(2-(4-(2-(2,6-dioxopiperidin-3-yl)-1,3-dioxoisoindolin-5-yl)piperazin-1-yl)ethoxy)ethoxy)ethyl)piperidin-4-yl)oxy)-6-(trifluoromethyl)benzenesulfonamide] | +
COc1cnc(OC)n2nc(NS(=O)(=O)c3c(OCCOCCOCCN4CCC(CCCN5CCN(c6ccc7c(c6)C(=O)N(C6CCC(=O)NC6=O)C7=O)CC5)CC4)cccc3C(F)(F)F)nc12 (centres unmarked) [Compound 4-J, N-(5,8-Dimethoxy-[1,2,4]triazolo[1,5-c]pyrimidin-2-yl)-2-(2-(2-(2-(4-(3-(4-(2-(2,6-dioxopiperidin-3-yl)-1,3-dioxoisoindolin-5-yl)piperazin-1-yl)propyl)piperidin-1-yl)ethoxy)ethoxy)ethoxy)-6-(trifluoromethyl)benzenesulfonamide] | −
COc1cnc(OC)n2nc(NS(=O)(=O)c3c(OCCOCCN4CCC(CCCN5CCN(c6ccc7c(c6)C(=O)N(C6CCC(=O)NC6=O)C7=O)CC5)CC4)cccc3C(F)(F)F)nc12 (centres unmarked) [Compound 4-K, N-(5,8-Dimethoxy-[1,2,4]triazolo[1,5-c]pyrimidin-2-yl)-2-(2-(2-(4-(3-(4-(2-(2,6-dioxopiperidin-3-yl)-1,3-dioxoisoindolin-5-yl)piperazin-1-yl)propyl)piperidin-1-yl)ethoxy)ethoxy)-6-(trifluoromethyl)benzenesulfonamide] | +
COc1cnc(OC)n2nc(NS(=O)(=O)c3c(OCCN4CCC(CCCN5CCN(c6ccc7c(c6)C(=O)N(C6CCC(=O)NC6=O)C7=O)CC5)CC4)cccc3C(F)(F)F)nc12 (centres unmarked) [Compound 4-L, N-(5,8-Dimethoxy-[1,2,4]triazolo[1,5-c]pyrimidin-2-yl)-2-(2-(4-(3-(4-(2-(2,6-dioxopiperidin-3-yl)-1,3-dioxoisoindolin-5-yl)piperazin-1-yl)propyl)piperidin-1-yl)ethoxy)-6-(trifluoromethyl)benzenesulfonamide] | −
COc1cnc(OC)n2nc(NS(=O)(=O)c3c(OCCCC4CCN(CCOCCOc5ccc6c(c5)C(=O)N(C5CCC(=O)NC5=O)C6=O)CC4)cccc3C(F)(F)F)nc12 (centres unmarked) [Compound 4-M, N-(5,8-Dimethoxy-[1,2,4]triazolo[1,5-c]pyrimidin-2-yl)-2-(3-(1-(2-(2-((2-(2,6-dioxopiperidin-3-yl)-1,3-dioxoisoindolin-5-yl)oxy)ethoxy)ethyl)piperidin-4-yl)propoxy)-6-(trifluoromethyl)benzenesulfonamide] | +
COc1cnc(OC)n2nc(NS(=O)(=O)c3c(OCCCC4CCN(CCOCCOCCOc5ccc6c(c5)C(=O)N(C5CCC(=O)NC5=O)C6=O)CC4)cccc3C(F)(F)F)nc12 (centres unmarked) [Compound 4-N, N-(5,8-Dimethoxy-[1,2,4]triazolo[1,5-c]pyrimidin-2-yl)-2-(3-(1-(2-(2-(2-((2-(2,6-dioxopiperidin-3-yl)-1,3-dioxoisoindolin-5-yl)oxy)ethoxy)ethoxy)ethyl)piperidin-4-yl)propoxy)-6-(trifluoromethyl)benzenesulfonamide] | −
